The source of these data is patent US8853242B2, “Nitrogenous-ring acylguanidine derivative” (Astellas Pharma Inc., priority 2009, dated 2014).

Where a name gives a salt, the structure may show the parent alone.

Assay [1] deals with human 5-HT5A receptor (Homo sapiens (Human), UniProt P47898). Kind of assay: Test on a human 5-HT5A receptor binding inhibition ([3H]5-CT). To be noted: membrane from HEK293 cells expressing human 5-HT5A receptor, Ki calculated from IC50. As to the method:
The ORF (open reading frame; protein coding region) of a human 5-HT5A receptor (Genbank AF498985) was cloned from a human hippocampus cDNA library, and then inserted into a pCR2.1 vector (Invitrogen), and Escherichia coli containing the plasmid was cultured in a large amount. Next, the full-length cDNA sequence of the human 5-HT5A receptor was analyzed, and recombined into a pCDNA3.1 vector (Invitrogen) as an expression vector and cultured in a large amount. HEK293 established cells (ATCC) derived from the human fetal kidney were seeded, the expression plasmid (1 μg) obtained above were added thereto with LIPOFECTAMINE 2000 (Invitrogen; 2 μl), the gene was transfected into HEK293 cells, and the expression cells were screened with a drug-resistant marker, Geneticin (G418 sulfate 500 μg/ml; Kanto Chemical Co., Inc.). Thus prepared recombinant cells which expressed the gene were cultured in a medium containing D-MEM (Dulbecco's modified eagle medium, Sigma), 10% FCS (Fetal calf serum: fetal bovine serum), 1% Pc./Sm (Penicillin/Streptomycin, Invitrogen), and 500 μg/ml G418 for 3 days. These experimental operations followed a manual for gene operation experiment and an instruction appended in a reagent, and the like, such as a known method (Sambrook, J. et al, Molecular Cloning-A Laboratory Manual”, Cold Spring Harabor laboratory, NY, 1989).
HEK293 cells for forced expressions of a human 5-HT5A receptor were cultured in a F500 plate, and scraped with a scraper. After centrifugation, the precipitate was collected, and an incubation buffer (50 mM Tris (HCl) (pH 7.4), 10 mM MgSO4, and 0.5 mM EDTA (ethylenediamine tetraacetic acid)) was added thereto. After homogenization, it was further centrifuged, and the incubation buffer was added to the precipitate, followed by thoroughly suspending. The operation was repeated, and protein concentration was measured, thereby completing preparation of the membrane.
A solution of the compound to be tested and 100 μM 5-CT (5-carboxamidetriptamine) in DMSO was added to a 96-well plate at 2 μl/well, suspended in an incubation buffer, and a membrane from HEK293 cells for forced expressions of a human 5-HT5A receptor prepared at 200 μg/ml was added at 100 μl/well. After incubation at room temperature for 15 minutes, a [^3H]5-CT solution (2 nM [^3H]5-CT, incubation buffer) was added thereto at 100 μl/well.
Separately, 100 μl of the solution was distributed into a liquid scintillation vial, and 2 ml of Aquasol II (registered trademark) was added thereto, followed by stirring. Then, radioactivity was measured by a liquid scintillation counter. It was incubated at 37° C. for 60 minutes. The reaction mixture was sucked into 96-well GF/C filter plate that had been pre-treated with 0.2% polyethyleneimine, and washed six times with an ice-cooled, 50 mM Tris (pH 7.5) buffer. The GF/C filter plate was dried.
Microscint TMPS (registered trademark) was added thereto at 40 μl/well. Radioactivity remaining on the GF/C filter plate was measured by a top counter.
The [^3H]5-CT binding inhibiting activity by the compound to be tested in each experiment was determined as an IC50 value with a radioactivity upon addition of DMSO alone being 0% inhibition, and a radioactivity upon addition of 1 μM 5-CT being 100% inhibition. Separately, Ki values were calculated from the Kd value of the [^3H]5-CT determined from Scatchard analysis, by the following equation. Ki=IC50(1+Concentraion of ligand added/Kd(4.95 nM))

Assay [2] deals with Male ICR mouse. Description: Hyperactivity (quantity of motion) induced by methamphetamine (MAP) in mice. The assay is classed as in vivo. To be noted: oral dose 0.1 mg/kg; MAP 1.5 mg/kg; P<0.05. As for the experimental part: (§1) The improvement effect of compound of formula (I) on schizophrenia was evaluated by measuring the quantity of motion inhibited by administration of the compound in a model in which the symptoms were induced by methamphetamine (hereinafter abbreviated as MAP) and MK-801.
(§2) The animal was taken out of a breeding cage, orally administered with a test compound, and then placed into a cage for breeding. After 30 minutes, the animal was put into a cage for measurement, and the quantity of motion with the test compound alone was measured. Further, after 30 to 90 minutes, the animal was taken out, and subcutaneously or intraperitoneally administered with a drug for increasing the quantity of motion (MAP; 1.5 mg/kg or MK-801; 0.3 mg/kg, dissolved in physiological saline, respectively). Then, the quantity of motion for a certain period of time (60 minutes) was measured using a device for measuring the quantity of motion (CompACT AMS manufactured by Muromachi Kikai Co., Ltd.) by means of an infrared sensor.
For a normal mouse (a mouse administered with physiological saline) and a mouse administered with a drug for increasing the quantity of motion, a Student's T test was performed for evaluation for each interval. For a group administered with the test compound, an assay was performed using a solvent (vehicle) group and a Dunnett's T test. […]

Assay [3] concerns Male ddY mouse. Description: Spontaneous alternation behavior (Y-maze) induced by Scoporamine in mice. The assay is classed as in vivo. To be noted: Scoporamine 0.5 mg/kg i.p. As for the experimental part:
The improvement effect of compound of formula (I) on cognitive impairment of dementia and schizophrenia was evaluated by a known test method as a model with short-term learning disorder.
After 10 to 30 minutes from oral administration of the test compound, 0.5 mg/kg of Scoporamine or 0.15 mg/kg of MK-801 (in the case of a normal group, physiological saline was administered) was intraperitoneally administered. After 20 minutes, the test was conducted. In addition, solvent (vehicle) was orally administered to the normal group (to which physiological saline was administered) and to the control group (to which 0.5 mg/kg of Scoporamine or 0.15 mg/kg of MK-801 was administered), when the test compound was administered.
A mouse was placed at the end of one arm of a Y-maze having arms with the same length in three directions, and then allowed to explore freely and the number of arm entries was counted for 8 minutes. Further, spontaneous alternation behavior was defined as entries into all three different arms on consecutive occasions, and the ratio of the number of instances of this behavior to the total number of the entries was calculated as an alternation rate by the following formula: Alternation rate(%)=Number of spontaneous alternation behaviors/(Total number of entries−2)×100.
If a significant difference between the normal group and the control group (Student's T test) was approved in the alternation rate (%), it was considered to have learning disorder by the administration of Scoporamine or MK-801. By carrying out a Dunnett's test on the group administered with the test compound with respect to the control group, the presence or absence of effect of the test compound on learning disorder was evaluated. For each assay, it was considered that there was a tendency when p<0.10 and there was a significant difference when p<0.05.

In assay [4] the test system is Male ICR mouse. Description: Hyperactivity (quantity of motion) induced by MK-801 in mice. The assay is classed as in vivo. The conditions noted are these: MK-801 0.3 mg/kg, P<0.05. As to the method:
as §1, §2
For a normal mouse (a mouse administered with physiological saline) and a mouse administered with a drug for increasing the quantity of motion, a Student's T test was performed for evaluation for each interval. For a group administered with the test compound, an assay was performed using a solvent (vehicle) group and a Dunnett's T test. For the evaluation, if there was a significant difference (P<0.05), it was considered that there is an effect.

Sequence of human 5-HT5A receptor (P47898 whole entry): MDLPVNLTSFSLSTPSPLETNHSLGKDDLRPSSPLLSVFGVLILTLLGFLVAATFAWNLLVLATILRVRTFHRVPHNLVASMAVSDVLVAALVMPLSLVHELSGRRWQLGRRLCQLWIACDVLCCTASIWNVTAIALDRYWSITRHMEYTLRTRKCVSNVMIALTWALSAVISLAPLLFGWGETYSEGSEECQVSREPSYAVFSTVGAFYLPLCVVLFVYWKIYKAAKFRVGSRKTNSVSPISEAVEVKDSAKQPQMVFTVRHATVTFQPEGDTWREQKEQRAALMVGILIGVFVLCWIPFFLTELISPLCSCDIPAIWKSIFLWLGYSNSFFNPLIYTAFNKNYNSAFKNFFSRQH

By Ki is commonly meant the equilibrium dissociation constant of an inhibitor or competing ligand from its target. Consider `NC(N)=NC(=O)c1ccc2c(F)cnc(-c3c(F)cccc3F)c2c1` [Example 148], for which the Ki in assay [1] ([3H]5-CT binding inhibition) is 1.4 nM. For the same molecule, the “hyperactivity induced by MAP” value in assay [2] is recorded as “significantly inhibited”. Further, the “spontaneous alternation behavior induced by Scoporamine” value in assay [3] (oral dose 0.01 mg/kg) was “significantly inhibited”. Moreover, in assay [4] (oral dose 0.03 mg/kg), the “hyperactivity induced by MK-801” value is reported as “significantly inhibited”.
On to `NC(N)=NC(=O)c1ccc2c(F)cnc(-c3c(F)cncc3F)c2c1` [Example 157], for which the Ki was 5.3 nM in assay [1] ([3H]5-CT binding inhibition) and 1 to 10 nM in assay [1] ([3H]5-CT binding). Further, the “spontaneous alternation behavior induced by Scoporamine” value in assay [3] (oral dose 0.001 mg/kg) is recorded as “significantly inhibited”. In addition, the “hyperactivity induced by MK-801” value in assay [4] (oral dose 0.03 mg/kg) is “significantly inhibited”.
For the molecule `NC(N)=NC(=O)c1ccc2ncc(Cl)c(-c3ccc(F)cc3)c2c1` [Example 73], the Ki in assay [1] ([3H]5-CT binding) was 1 to 10 nM. In addition, the “hyperactivity induced by MK-801” value in assay [4] (oral dose 0.1 mg/kg) is “significantly inhibited”.
On to `NC(N)=NC(=O)c1ccc2c(F)cnc(-c3ccccc3F)c2c1` [Example 160], for which the Ki in assay [1] ([3H]5-CT binding inhibition) was 3.3 nM. The “spontaneous alternation behavior induced by Scoporamine” value in assay [3] (oral dose 0.001 mg/kg) is “significantly inhibited”. Further, in assay [4] (oral dose 0.01 mg/kg), the “hyperactivity induced by MK-801” value is “significantly inhibited”.
As for `Cc1cnc(-c2ccccc2F)c2cc(C(=O)N=C(N)N)ccc12` [Example 192], the figures for the Ki in assay [1] ([3H]5-CT binding inhibition) and in assay [1] ([3H]5-CT binding) were 1.8 nM and 1 to 10 nM, respectively. Besides, in assay [3] (oral dose 0.003 mg/kg), the “spontaneous alternation behavior induced by Scoporamine” value was “significantly inhibited”. For the same molecule, the “hyperactivity induced by MK-801” value in assay [4] (oral dose 0.01 mg/kg) was “significantly inhibited”.
With `COc1cnc(-c2c(F)cccc2F)c2cc(C(=O)N=C(N)N)ccc12` [Example 197], in assay [1] ([3H]5-CT binding), the Ki was 1 to 10 nM.
Regarding `COc1cc(Cl)ccc1-c1ncc(F)c2ccc(C(=O)N=C(N)N)cc12` [Example 204], the Ki in assay [1] ([3H]5-CT binding) was 10 to 100 nM.
In the case of `NC(N)=NC(=O)c1ccc2nc(C(F)(F)F)cc(-c3ccc(F)cc3F)c2c1` [Example 92], in assay [1] ([3H]5-CT binding), the Ki was 100 to 300 nM.
With `COc1ccc(-c2ccnc3c(C)cc(C(=O)N=C(N)N)cc23)c(Cl)c1` [Example 70], in assay [1] ([3H]5-CT binding), the Ki is 1 to 10 nM.
`COc1cccc(F)c1-c1ncc(F)c2ccc(C(=O)N=C(N)N)cc12` [Example 159]: the Ki in assay [1] ([3H]5-CT binding inhibition) was 7.1 nM; in assay [1] ([3H]5-CT binding), 1 to 10 nM.
On to `Cc1cnc(-c2c(F)cccc2F)c2cc(C(=O)N=C(N)N)ccc12` [Example 170], for which the Ki in assay [1] ([3H]5-CT binding inhibition) was 1.9 nM.
Turning to `N#Cc1ccc(-c2nccc3ccc(C(=O)N=C(N)N)cc23)c(F)c1` [Example 141], the Ki in assay [1] ([3H]5-CT binding) is 1 to 10 nM.
On the same count and under the same terms, under `NC(N)=NC(=O)c1ccc2ccnc(-c3ccc(Cl)cc3Cl)c2c1` [Example 138] stands 1 to 10 nM; under `Cc1cnc2ccc(C(=O)N=C(N)N)cc2c1-c1cccc(F)c1Cl` [Example 61], 1 to 10 nM.
For `NC(N)=NC(=O)c1ccc2c(Cl)cnc(-c3c(F)cccc3F)c2c1` [Example 162], the Ki in assay [1] ([3H]5-CT binding inhibition) was 1.2 nM.
For `Cc1cccc(C)c1-c1ncc(Cl)c2ccc(C(=O)N=C(N)N)cc12` [Example 222], the Ki in assay [1] ([3H]5-CT binding) was 1 to 10 nM.
On the same count and under the same terms, under `NC(N)=NC(=O)c1ccc2c(Cl)cnc(-c3cc(F)ccc3F)c2c1` [Example 214] stands 1 to 10 nM.
The same measure, in the same setting: under `NC(N)=NC(=O)c1ccc2c(CO)cnc(-c3c(F)cc(F)cc3F)c2c1` [Example 2, N-(diaminomethylene)-4-(hydroxymethyl)-1-(2,4,6-trifluorophenyl)isoquinoline-7-carboxamide fumarate] stands 10 to 100 nM; under `NC(N)=NC(=O)c1ccc2c(F)cnc(-c3cccc(F)c3F)c2c1` [Example 205], 10 to 100 nM.
In the case of `NC(N)=NC(=O)c1ccc2c(F)cnc(-c3ccc(F)cc3Cl)c2c1` [Example 151], the Ki in assay [1] ([3H]5-CT binding inhibition) is 4.1 nM.
`NC(N)=NC(=O)c1ccc2c(C(F)(F)F)cnc(-c3c(F)cccc3F)c2c1` [Example 196]: the Ki in assay [1] ([3H]5-CT binding) was 10 to 100 nM.
For `N#Cc1ccccc1-c1nccc2ccc(C(=O)N=C(N)N)cc12` [Example 139], the Ki in assay [1] ([3H]5-CT binding) was 100 to 300 nM.
Turning to `Cc1nc2ccc(C(=O)N=C(N)N)cc2c(-c2ccc(F)cc2Cl)c1C` [Example 126], the Ki in assay [1] ([3H]5-CT binding) is 1 to 10 nM.
Still for that read-out and setting: under `NC(N)=NC(=O)c1ccc2c(C3CC3)cnc(-c3c(F)cccc3F)c2c1` [Example 156] stands 10 to 100 nM.
Same read-out and setting: the figure for `NC(N)=NC(=O)c1ccc2nccc(-c3cc(Cl)ccc3F)c2c1` [Example 22] is 10 to 100 nM; for `COc1cc(F)c(-c2ccnc3ccc(C(=O)N=C(N)N)cc23)c(F)c1` [Example 59] it is 10 to 100 nM; for `Cc1cc(C(=O)N=C(N)N)cc2c(-c3c(F)cc(F)cc3Cl)ccnc12` [Example 65] it is 1 to 10 nM.
Still for that read-out and setting: the figure for `Cc1cc(C(=O)N=C(N)N)cc2c(C3=CCCC3)ccnc12` [Example 75] is 10 to 100 nM; for `NC(N)=NC(=O)c1ccc2nccc(-c3cccc(C(F)(F)F)c3F)c2c1` [Example 28] it is 10 to 100 nM.
For `NC(N)=NC(=O)c1ccc2ncc(Cl)c(-c3ccccc3)c2c1` [Example 74], the Ki in assay [1] ([3H]5-CT binding) is 1 to 10 nM.
